Laboratory results: patent US9051325B2, “Bicyclic [5,6] imidazo pyrimodone compounds for use in the treatment of diseases or conditions mediated by Lp-PLA2” (GlaxoSmithKline Intellectual Property Development Limited, priority 2013, dated 2015)

Legend:
[1] = tested on: proinflammatory (M1) and anti-inflammatory (M2) markers in macrophages; assay: Ex vivo analysis of M1 and M2 markers in macrophages of EAE rats by realtime PCR; parameters: species or system rat; settings: splenic and CNS infiltrating macrophages of EAE rats
Description: Ex vivo analysis of proinflammatory (M1) and anti-inflammatory (M2) markers in control and compound treated EAE rats. Splenic macrophages were harvested at day 13 post MBP-immunization and assayed for expression of a variety of markers by realtime PCR. CNS infiltrating cells were harvested and macrophages were analyzed for expression of M1 and M2 markers by realtime PCR.

rat EAE model = assay: Rat experimental autoimmune encephalomyelitis (EAE) model, preventive treatment; format: in vivo
Description: A further study was carried out to study the impact of Lp-PLA2 inhibitors on modulating M1/M2 imbalance. In this study, rats were induced to develop experimental autoimmune encephalomyelitis (EAE) by immunization with myelin basic protein (MBP) antigen and treated with a known Lp-PLA2 inhibitor: 5-((9-Methoxy-4-oxo-6,7-dihydro-4H-pyrimido[6,1-a]isoquinolin-2-yl)oxy)-2-(3-(trifluoromethyl)phenoxy)benzonitrile (See PCT application no. PCT/CN2011/001597). In this preventive treatment model, the compound was administered at day 0 (day of immunization) and continued to administer until day 22. The study lasted for 25 days. Rats were subsequently monitored for symptoms of EAE. Rats were immunized with MBP to develop EAE and symptoms were monitored daily. Plasma Lp-PLA2 activity, OxLDL, and LysoPC concentration were determined at different time points through the course of EAE.

Which results are given for `COc1ccc2c(c1)CCn1c-2cc(Oc2ccc(Oc3cccc(C(F)(F)F)c3)c(C#N)c2)nc1=O` [5-((9-Methoxy-4-oxo-6,7-dihydro-4H-pyrimido[6,1-a]isoquinolin-2-yl)oxy)-2-(3-(trifluoromethyl)phenoxy)benzonitrile]?
M1 markers [1]: decrease; M2 markers [1]: increase; Lp-PLA2 activity in rat EAE plasma (rat EAE model; rat EAE plasma): decreased; LysoPC levels in rat EAE plasma (rat EAE model; rat EAE plasma): decreased; clinical disease (rat EAE model; rat EAE, MBP immunization, administered day 0 to day 22): reduction in clinical disease
